Patent US11634381B2, “RUNX2 transcription factor inhibitors and uses thereof” (University of Maryland, Baltimore, priority 2015, dated 2023)

What was measured:
[1] = tested on: BC cell lines; test: Clonogenic survival assay; format: cell-based, human; conditions: 50 μM
Experimental: Cells were plated on 6-well plates (200˜500 cells/well). After compound 1 (50 μM) treatment, cells were incubated for 2-3 weeks without changing media. Colonies were fixed in Methanol-Acetic Acid solution (3:1) and stained with crystal violet (0.5%). After washing, colonies were photographed and counted.

[2] = tested on: RUNX2 transcriptional activity; test: Luciferase-promoter reporter assay of RUNX2 target genes; format: cell-based, human
Experimental: Cells were plated in 96-well plates (30,000 cells/well) and incubated overnight. Cells were co-transfected with indicated luciferase-reporter plasmids (25 ng/well) and pSV-Renilla-Luc (Promega) (15 ng/well) for 6 hrs and compound 1 ([…]) was further treated for 18-48 hrs. COX-2 (P2-274)-Luc (−170bp˜+104bp) and control plasmids (PXP2-Luc) were kindly provided byDr. Miguel A. Iñiguez (Universidad Autónoma de Madrid, Spain), and pNF-kb-Luc was from Dr. Hancai Dan (University of Maryland). Luciferase assay was performed using the Dual-Glo Luciferase Assay Systems as per manufacturer's recommendation (Promega).

[3] = tested on: MCF7-tet-off-Luc (-Doxy) and 231-Luc cells; test: In vivo lung metastasis assay (BLI); design: species or system NSG mice; conditions: 10 mg/kg
Experimental: For in vivo lung metastasis assay, MCF7-tet-off-Luc cells were grown for 3 days in the absence of Doxycyclin (−Doxy) and injected into the tail vein of the 8 week-old female NSG mice (1×10^6 cells/200 μl of PBS). After inoculation, the mice were randomly assigned to vehicle control and treatment groups. Vehicle (10% DMSO/90% PBS) and compound 1 (10 mg/kg) were injected i.p. 2 hrs after inoculation. The retention of the cells in the lung was monitored by noninvasive bioluminescence imaging for 24 hrs. For luciferase detection, 150 mg/mL D-luciferin (Caliper Life Sciences) in PBS was injected i.p. before imaging. Photometric measurement of metastasis was done by living Image software (Xenogen). In separate groups of mice, 231-Luc cells (1×10^6/200 μl of PBS) were injected, and the metastasis burden in the lung was quantified for 3 weeks.

[4] = tested on: Br-001 tumor; test: TNBC-PDX Br-001 model; format: in vivo, nude mice; conditions: 10 mg/kg
Experimental: For the PDX models, Br-001 tumor fragments derived from a patient with TNBC (University of Maryland, Translational Core Facility) were inoculated subcutaneously in female NOD scid gamma (NSG) mice (P1). After P1 tumors were grown, tumors were excised, fragmented and inoculated to a new group of NSG mice (P2). After P2 tumors were grown, they were excised, fragmented, and inoculated into nude mice (P3). When the size of the tumors reached 200˜250 mm^3, mice were randomized into two groups, and received i.p. injection of vehicle or compound 1 (10 mg/kg) twice a week for 11 days.

[5] = tested on: breast cancer cells; test: Cell cycle analysis by flow cytometry; format: cell-based, human; conditions: 50 μM
Experimental: Cells (1×10^6 cells/ml) were starved in serum-free medium for 24 hrs, and released in 10% serum-medium with or without compound 1 (50 μM) for 16-24 hrs for cell cycle transition. Cells were then fixed in 70% ethanol at 4° C. for 1 hr, resuspended in 1 ml PBS containing 20 μg/ml propidium iodide, 20 μg/ml RNase A, incubated for 30 min at room temperature, and analyzed with a Becton Dickinson LSR-II at the Flow Cytometry Core Laboratory at the University of Maryland. Ten thousand events per sampl were collected and analyzed using the Cell-Quest (BD Biosciences).

[6] = tested on: MDA-231 cells; test: Cell-electrode impedance invasion assay (xCELLigence); format: cell-based, human; conditions: MDA-231, 50 μM, 48 hrs
Experimental: Real-time monitoring of cellular invasion was examined using an electrical impedance assay with an xCELLigence RTCA SP real-time cell-sensing device (Roche Applied Science). Matrigel (20 μl of 0.5 mg/ml) was pre-coated in the upper chamber of CIM plates and polymerized for 4 h and MDA-231 cells (75,000) were seeded onto wells containing growth medium with vehicle (0.1% DMSO) or compound 1 (50 μM). Impedance-based signals were measured every 5 minutes for 48 hrs according to the manufacturer's instructions. The invasive activity is expressed as the cell index (mean±SD) of duplicate wells. Three independent experiments were performed. In parallel, MDA-231 cells were plated onto wells with serum-free medium and the assay was performed.

[7] = biological target: RUNX2 (Homo sapiens, UniProt Q13950); test: D-ELISA DNA binding assay; design: endogenous in cells; conditions: read-out: IC50 in D-ELISA DNA binding assays (RUNX2 DNA binding)
Sequence of RUNX2 (Q13950 whole entry): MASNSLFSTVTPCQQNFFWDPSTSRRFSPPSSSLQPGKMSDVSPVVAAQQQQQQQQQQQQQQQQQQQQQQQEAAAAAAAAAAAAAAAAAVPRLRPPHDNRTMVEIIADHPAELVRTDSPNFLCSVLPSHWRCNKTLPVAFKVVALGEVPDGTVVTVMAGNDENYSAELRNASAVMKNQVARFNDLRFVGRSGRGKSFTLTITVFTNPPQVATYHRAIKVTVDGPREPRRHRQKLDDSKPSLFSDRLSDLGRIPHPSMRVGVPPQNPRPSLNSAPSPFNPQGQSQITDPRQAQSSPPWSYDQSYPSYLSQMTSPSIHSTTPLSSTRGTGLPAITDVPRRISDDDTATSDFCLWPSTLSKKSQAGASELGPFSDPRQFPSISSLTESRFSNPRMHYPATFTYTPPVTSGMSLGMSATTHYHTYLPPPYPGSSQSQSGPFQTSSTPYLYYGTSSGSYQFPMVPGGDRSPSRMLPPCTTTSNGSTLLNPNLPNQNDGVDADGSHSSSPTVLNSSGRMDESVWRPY
Experimental: A microtiter plate-based D-ELISA was performed as described. Briefly, nuclear proteins were isolated from HBME-1 cells that express all three RUNX proteins and bound to double-stranded DNA oligonucleotides of human osteocalcin and MMP13 (forward primer: 5′-TTCTACCACAAACCACACTCGTTCTACCACAAACCACACTCGTTCTACCACAAACCACACTCG-Biotin-3′, SEQ ID NO: 4 and reverse primer: 5′-CGAGTGTGGTTTGTGGTAGAACGAGTGTGGTTTGTGGTAGAACGAGTGTGGTTTGTGGTAGAA-Biotin-3′, SEQ ID NO: 5). Vehicle (0.05% DMSO) or compound 1 at different concentrations were incubated with the proteins and DNA oligonucleotide mixture in Avidin-coated 96-well plates. DNA-bound RUNX proteins were captured with specific antibodies (Cell Signaling Technologies). Primary and secondary antibody dilution was 1:500 and 1:10,000, respectively.

O=C(O)C1C2C=CC(C2)C1C(=O)Nc1ccc(Cl)c(Cl)c1 (centres unmarked) [compound 1, 3-(N-(3,4-dichlorophenyl)carbamoyl)-5-norbornene-2-carboxylic acid]
clonogenic survival ([1]; 2˜3 weeks, 11 out of 13 BC cells): less than 50%
clonogenic cell survival ([1]; 2˜3 weeks, BT549, HCC70, MDA-468, MCF7, HCC361, BT474): less than 10%
clonogenic survival ([1]; 2˜3 weeks, MDA-231 and Hs578t): > 50%
clonogenic survival ([1]; 2˜3 weeks, MDA-468 and BT474): did not survive
clonogenicity ([1]; T47D-Empty and T47D-RUNX2 cells, 14 days): dramatically diminished
MMP13 promoter activity ([2]; BT474 cells that do not express RUNX2, 48 hrs): did not attenuate
repression of MMP13 promoter-Luc activity ([2]; MCF7-RUNX2 cells): about 50%
MMP13 promoter activity ([2]; MDA-231 cells that express RUNX2, 48 hrs): decreased significantly
promoter-Luc activities of control cells ([2]; T47D-Empty and MCF7-Empty): little effect
promoter-luciferase activities of MMP13, VEGF and OC ([2]; T47D-RUNX2 and MCF7-RUNX2 cells, 48 hrs): dramatic decrease
RUNX2-repressed p21 promoter activity ([2]; T47D-RUNX2 cells): reactivated
p6xOSE2-Luc activity ([2]; T47D-RUNX2 cells): slightly but significantly reduced
MMP13 promoter-Luc activity ([2]; T47D-RUNX2 cells, 2 μM): almost completely blocked
body weight and general health ([3]; NSG mice): did not significantly decrease body weight
colonization and outgrowth in the lung versus vehicle ([3]; 231-Luc cells, 3 weeks): significantly lower
metastatic homing to the mouse lungs ([3]; MCF7-tet-off-Luc (-Doxy) cells): no influence
lung retention of the cells ([3]; MCF7-tet-off-Luc (-Doxy) cells, 24 hrs): significantly reduced
Ki-67 expression ([4]; i.p.): markedly reduced
tumor volume ([4]; i.p., 11 days): significant decrease
body weight and general health ([4]; nude mice): did not significantly decrease body weight
cell cycle distribution [5]: increased cell populations at the G1 phase with reduction at the S phase
cell index (mean±SD) [6]: 1.6636±0.1845
IC50 [7]: 10 nM
